Results from patent publication US9493487B2, “3-(1H-imidazo[4,5-C]pyridin-2-YL)-1H-pyrazolo[3,4-B]pyridine and therapeutic uses thereof” (Samumed, LLC, priority 2014, dated 2016).

How the values were obtained:
Assay type in all cases: cell-based
[1] = tested on: Wnt activity (Sp5-Luc reporter, SW480 colon carcinoma cells); assay: Sp5-Luc Wnt reporter gene assay in SW480 colon carcinoma cells; settings: Homo sapiens; SW480 cells stably expressing Sp5-Luc reporter; 42 h incubation; BrightGlo luminescence normalized to DMSO
Method in brief: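 IC50 values come from variable-slope four-parameter fits of luciferase signal normalized to DMSO wells. Stable Sp5-Luc reporter SW480 colon carcinoma cells were exposed to compounds in a 3-fold dilution series (source plates from 10 mM stock) for forty-two hours at 37 °C.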

[2] = tested on: primary human mesenchymal stem cells (hMSCs); assay: Chondrogenesis induction screen in primary human mesenchymal stem cells (nodule count, Rhodamine B/Nile Red); settings: 144 h, 6 days, concentration required to induce chondrogenesis equivalent to TGF-β3 (10 ng/mL), read-out: Conc (nM) of 100% TGF-β3 activity
Experimental: The above synthesized compounds were screened using primary human mesenchymal stem cells (hMSCs) to determine their ability to induce chondrogenesis (process by which cartilage is developed).
Primary human mesenchymal stem cells (hMSCs) were purchased from Lonza (Walkersville, Md.) and expanded in Mesenchymal Stem Cell Growth Media (Lonza). Cells between passage 3 and 6 were used for the experiments.
Each compound was dissolved in DMSO as a 10 mM stock and used to prepare compound source plates. Serial dilution (1:3, 6-point dose-response curves from 2700 nM to 10 nM) and compound transfer was performed using the ECHO 550 (Labcyte, Sunnyvale, Calif.) into 96-well clear bottom assay plates (Greiner Bio-One) with appropriate DMSO backfill for a final DMSO concentration of 0.03%. hMSCs were plated at 20,000 cells/well in 250 μL/well Incomplete Chondrogenic Induction Medium (Lonza; DMEM, dexamethasone, ascorbate, insulin-transferrin-selenium [ITS supplement], gentamycin-amphotericin [GA-1000], sodium pyruvate, proline and L-glutamine). TGF-β3 (10 ng/mL) was used as a positive control for differentiation while negative control wells were treated with 75 nL DMSO for normalization and calculating EC50 values. Cells were incubated at 37° C. and 5% CO2 for 6 days. To image chondrogenic nodules, the cells were fixed using 4% formaldehyde (Electron Microscopy Sciences), and stained with 2 μg/mL Rhodamine B (Sigma-Aldrich) and 20 μM Nile Red (Sigma-Aldrich) [Johnson K., et. al, A Stem Cell-Based Approach to Cartilage Repair, Science, (2012), 336(6082), 717-721]. The nodules imaged (4 images per well at 4× magnification) by excitation at 531 nm and emission at 625 nm and quantified using the CellInsight CX5 (Thermo Scientific). Number of nodules in each well was normalized to the average of 3 DMSO treated wells on the same plate using Excel (Microsoft Inc.). The normalized averages (fold change over DMSO) of 3 replicate wells for each compound concentration were calculated. Due to solubility limitations of some of the compounds, curve fitting was incomplete leading to inaccurate EC50 determinations.
Using TGF-β3 as a positive control, the concentration of test compounds required to induce equivalent levels of chondrogenesis is reported. In addition, the maximum activity of each compound and the respective dose that each compound reached maximum chondrogenesis activity is reported.

[3] = tested on: primary human fibroblasts derived from IPF patients (LL29 cells); assay: Inhibition of TGF-β1-induced fibrosis (αSMA staining) in primary human fibroblasts from IPF patients; settings: Fibroblast, 96 h, TGF-β1 20 ng/mL, 4 days, 11-point dose-response 10 μM to 1.87 nM
Method in brief: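 LL29 cells in F12 with 1% FBS were exposed to compound (11-point, 10 μM–1.87 nM, 0.1% DMSO) plus TGF-β1 20 ng/mL for 4 days at 37° C. Imaged αSMA-positive fraction of live (SYTOX-negative) cells, normalized to TGF-β1/DMSO wells; EC50 by non-linear regression of triplicates.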

SMILES	IC50 [1] [µM]	EC (100% TGF-beta3 activity) [2] [nM]	EC50 [3] [µM]
CCC(=O)Nc1cncc(-c2cnc3[nH]nc(-c4nc5c(-c6cccc(F)c6)nccc5[nH]4)c3c2)c1 [Compound 1, N-(5-(3-(4-(3-Fluorophenyl)-1H-imidazo[4,5-c]pyridin-2-yl)-1H-pyrazolo[3,4-b]pyridin-5-yl)pyridin-3-yl)propionamide]	0.0058	117	0.062
O=C(Nc1cncc(-c2cnc3[nH]nc(-c4nc5c(-c6ccc(F)cc6)nccc5[nH]4)c3c2)c1)C1CCC1 [Compound 46, N-(5-(3-(4-(4-Fluorophenyl)-1H-imidazo[4,5-c]pyridin-2-yl)-1H-pyrazolo[3,4-b]pyridin-5-yl)pyridin-3-yl)cyclobutanecarboxamide]	0.005	80.6	0.253
Nc1cncc(-c2cnc3[nH]nc(-c4nc5c(-c6ccccc6F)nccc5[nH]4)c3c2)c1 [Compound 55, 5-(3-(4-(2-Fluorophenyl)-1H-imidazo[4,5-c]pyridin-2-yl)-1H-pyrazolo[3,4-b]pyridin-5-yl)pyridin-3-amine]	0.0059	32.2	0.283
Cc1cn(-c2nccc3[nH]c(-c4n[nH]c5ncc(-c6cncc(NC(=O)CC(C)C)c6)cc45)nc23)cn1 [Compound 184, 3-Methyl-N-(5-(3-(4-(4-methyl-1H-imidazol-1-yl)-1H-imidazo[4,5-c]pyridin-2-yl)-1H-pyrazolo[3,4-b]pyridin-5-yl)pyridin-3-yl)butanamide]	0.0048	5.4	–
CCCC(=O)Nc1cncc(-c2cnc3[nH]nc(-c4nc5c(-c6ccsc6)nccc5[nH]4)c3c2)c1 [Compound 251, N-(5-(3-(4-(Thiophen-3-yl)-1H-imidazo[4,5-c]pyridin-2-yl)-1H-pyrazolo[3,4-b]pyridin-5-yl)pyridin-3-yl)butyramide]	0.0099	52.8	0.073
CC(C)Nc1cncc(-c2cnc3[nH]nc(-c4nc5c(-c6ccoc6)nccc5[nH]4)c3c2)c1 [Compound 272, 5-(3-(4-(Furan-3-yl)-1H-imidazo[4,5-c]pyridin-2-yl)-1H-pyrazolo[3,4-b]pyridin-5-yl)-N-isopropylpyridin-3-amine]	0.013	72	0.009
O=C(Nc1cncc(-c2cnc3[nH]nc(-c4nc5c(-c6cccs6)nccc5[nH]4)c3c2)c1)C1CC1 [Compound 305, N-(5-(3-(4-(Thiophen-2-yl)-1H-imidazo[4,5-c]pyridin-2-yl)-1H-pyrazolo[3,4-b]pyridin-5-yl)pyridin-3-yl)cyclopropanecarboxamide]	0.009	54.9	–
Cc1ccc(-c2nccc3[nH]c(-c4n[nH]c5ncc(-c6cncc(N)c6)cc45)nc23)s1 [Compound 341, 5-(3-(4-(5-Methylthiophen-2-yl)-1H-imidazo[4,5-c]pyridin-2-yl)-1H-pyrazolo[3,4-b]pyridin-5-yl)pyridin-3-amine]	0.0009	58.2	0.009
CC(=O)c1ccc(-c2nccc3[nH]c(-c4n[nH]c5ncc(-c6cccnc6)cc45)nc23)s1 [Compound 368, 1-(5-(2-(5-(Pyridin-3-yl)-1H-pyrazolo[3,4-b]pyridin-3-yl)-1H-imidazo[4,5-c]pyridin-4-yl)thiophen-2-yl)ethan-1-one]	0.0104	84.6	0.241
Cc1ccncc1-c1cnc2[nH]nc(-c3nc4c(-c5cc(F)cc(CNS(C)(=O)=O)c5)nccc4[nH]3)c2c1 [Compound 395, N-(3-Fluoro-5-(2-(5-(4-methylpyridin-3-yl)-1H-pyrazolo[3,4-b]pyridin-3-yl)-1H-imidazo[4,5-c]pyridin-4-yl)benzyl)methanesulfonamide]	0.008	92.8	0.009
CC(C)Nc1cncc(-c2cnc3[nH]nc(-c4nc5c(-c6cc(F)cc(NCCN(C)C)c6)nccc5[nH]4)c3c2)c1 [Compound 428, N^1-(3-Fluoro-5-(2-(5-(5-(isopropylamino)pyridin-3-yl)-1H-pyrazolo[3,4-b]pyridin-3-yl)-1H-imidazo[4,5-c]pyridin-4-yl)phenyl)-N^2,N^2-dimethylethane-1,2-diamine]	0.015	82.9	0.02
Cn1cc(-c2cnc3[nH]nc(-c4nc5c(-c6cccc(F)c6)nccc5[nH]4)c3c2)cn1 [Compound 888, 3-(4-(3-Fluorophenyl)-1H-imidazo[4,5-c]pyridin-2-yl)-5-(1-methyl-1H-pyrazol-4-yl)-1H-pyrazolo[3,4-b]pyridine]	0.012	74.9	0.014
Cc1ncc(-c2cnc3[nH]nc(-c4nc5c(-c6cccc(F)c6)nccc5[nH]4)c3c2)n1C [Compound 889, 5-(1,2-Dimethyl-1H-imidazol-5-yl)-3-(4-(3-fluorophenyl)-1H-imidazo[4,5-c]pyridin-2-yl)-1H-pyrazolo[3,4-b]pyridine]	0.012	152	0.009
